From patent publication US12257352B2, “Compositions and methods for delivery of biomacromolecule agents” (The Regents of the University of Michigan, priority 2016, dated 2025)
Peptide text beside a SMILES is read from it. * marks the point of attachment. FITC = O=C1OC2(c3ccc(O)cc3Oc3cc(O)ccc32)c2ccc(NC(=S)*)cc21

Assay: Lymph node draining of antigen peptide and Cho-CpG (IVIS)
Type: in vivo, C57BL/6 mice
Settings: 31 nmol FITC-tagged Ag subcutaneously at tail base, after 1 day
Protocol: Female C57BL/6 mice of age 6-8 weeks were purchased from Harlan Laboratories. […] 24 hours after injection, mice were euthanized by carbon dioxide inhalation and axillary lymph nodes and inguinal lymph nodes were harvested and imaged with IVIS optical imaging system (Caliper Lifesciences).
After 24 h, inguinal lymph nodes were harvested, and FITC or Cy5 fluorescence signal was measured with IVIS optical imaging system (Caliper Life Sciences).

FITC signal in inguinal dLNs: minimal FITC signal in inguinal dLNs
Structure (SMILES): CC[C@H](C)[C@H](NC(=O)[C@H](CO)NC(=O)[C@H](CO)NC(=O)[C@H](CO)NC(=O)[C@@H](N)CS)C(=O)N[C@H](C(=O)N[C@@H](CC(N)=O)C(=O)N[C@@H](Cc1ccccc1)C(=O)N[C@@H](CCC(=O)O)C(=O)N[C@@H](CCCCNC(=S)Nc1ccc2c(c1)C(=O)OC21c2ccc(O)cc2Oc2cc(O)ccc21)C(=O)N[C@@H](CC(C)C)C(=O)O)[C@@H](C)CC [free CSS-SIINFEK(FITC)L] (H-CSSSIINFEK(FITC)L-OH)
